Paper PMC7281280, “Is the Way to Fight Cancer Paved with Gold? Metal-Based Carbene Complexes with Multiple and Fascinating Biological Features” (Pharmaceuticals, 2020)
Where two headings read alike, the source gives them in different places.

Legend:
[1] = test system: Hek-293 human embryonic kidney epithelial cells; assay: MTT cell viability, normal Hek-293; type: cell-based; conditions: for IC50: normal cells, MTT, 72 h, mean ± SD, read-out: IC50 Hek-293
Procedure: (§1) The six cell lines used in this work (MCF-7, MDA-MB-231, HeLa, […], MCF-10A and Hek-293) were purchased from American Type Culture Collection (ATCC, Manassas, VA, USA). MCF-7 human breast cancer cells, estrogen receptor (ER)-positive, were maintained in Dulbecco’s modified Eagle’s medium/nutrient mixture Ham F-12 (DMEM/F12), supplemented with 10% fetal bovine serum (FBS) and 100 U mL^−1 penicillin/streptomycin. MCF-10A human mammary epithelial cells, were cultured in DMEM/F12 medium, supplemented with 5% horse serum (HS, Thermo Fisher Scientific, Milan, Italy), 100 U mL^−1 penicillin/streptomycin, […] hydrocortisone, 20 ng mL^−1 human epidermal growth factor (hEGF), […] insulin, and […] cholera enterotoxin (Sigma–Aldrich, Milan, Italy). MDA-MB-231 human breast cancer cells, known as triple-negative cells (i.e., not overexpressing human epidermal growth factor receptor 2 (HER2), estrogen and progesterone receptors), were cultured in DMEM/F12 supplemented with 5% FBS, 1% L-glutamine and 100 U mL^−1 penicillin/streptomycin. HeLa human epithelial cervix carcinoma cells, estrogen receptor (ER)-negative, and […] human endometrial adenocarcinoma cells, estrogen receptor (ER)-positive, were maintained in minimum essential Eagle’s Medium (MEM), supplemented with 10% FBS, 1% L-glutamine, 100 U mL^−1 penicillin/streptomycin and 1% Non-Essential Amino Acids (NEAA). Hek-293 human embryonic kidney epithelial cells were cultured in DMEM high glucose (4.5 g L^−1), supplemented with 10% FBS, 1% L-glutamine and 100 U mL^–1 penicillin/streptomycin. Cells were maintained at 37 °C in a humidified atmosphere of 95% air and 5% CO2 and periodically screened for contamination.
(§2) Cell viability has been determined using the 3-(4,5-dimethylthiazol-2-y1)-2,5-diphenyltetrazolium bromide (MTT, Sigma–Aldrich, Milan, Italy) assay. Cells have been seeded on 48-well plates and grown in complete medium. Before being treated, cells have been starved in serum free medium for 24 h for allowing cell cycle synchronization. […] Data are representative of three independent experiments; standard deviations (SD) have been shown.

[2] = test system: HeLa human epithelial cervix carcinoma cells; assay: MTT cell viability, HeLa; type: cell-based; conditions: 72 h, mean ± SD
Procedure: as §1, §2

[3] = test system: MDA-MB-231 human breast cancer cells; assay: MTT cell viability, MDA-MB-231; type: cell-based; conditions: mean ± SD
Procedure: as §1, §2

[4] = test system: MCF-7 human breast cancer cells; assay: MTT cell viability, MCF-7; type: cell-based; conditions: mean ± SD
Procedure: as §1, §2

[5] = test system: ISHIKAWA human endometrial adenocarcinoma cells; assay: MTT cell viability, […]; type: cell-based; conditions: 72 h, mean ± SD
Procedure: as §1, §2

[6] = test system: MCF-10A human mammary epithelial cells; assay: MTT cell viability, normal MCF-10A; type: cell-based; conditions: 72 h, mean ± SD
Procedure: as §1, §2

[7] = test system: MDA-MB-231 cells; assay: Detection of intracellular ROS (DCF-DA); type: cell-based, human; conditions: fluorescence microscopy
Procedure: We used 2,7-dichlorofluorescin diacetate (DCF-DA) as a fluorometric probe for ROS detection and their production was examined under an inverted fluorescence microscope, as already reported.
Cells were grown on glass coverslips until the treatment with compound or menadione (used as positive control) (Sigma–Aldrich, Milan, Italy). Then, cells were incubated with 10 μM 2′-7′-Dichlorofluorescein diacetate (Sigma–Aldrich, Milan, Italy) for 40 min at 37 °C in a 5% CO2 incubator, as previously described. Then, DAPI (0.2 μg mL^−1) counterstain was performed for 10 min at room temperature, in the dark. Cells were then washed three times with cold PBS, adding one drop of mounting solution, then they were observed and imaged under a fluorescence microscope (Leica DM6000; 20× magnification) with excitation/emission wavelength maxima of 490 nm/515 nm (DCF) or 350 nm/460 nm (DAPI). Images are representative of three independent experiments.
Images were acquired at 20× magnification. […] Fields are representative of three separate experiments.

[8] = test system: HeLa cells; assay: Immunofluorescence of microtubules, HeLa; type: cell-based, human; conditions: at IC50 value, 24 h
Procedure: (§3) Cells were grown on glass coverslips in full media, then serum-deprived for 24 h and exposed to compounds for 24 h (concentration equal to its IC50 value). Then, the cells after PBS-washed, were fixed with cold methanol (15 min/−20 °C) and incubated with primary antibody, diluted in blocking solution (4 °C/overnight), as previously described. The mouse anti-β-Actin (69879) and the rabbit anti-β tubulin (9104) were purchased from Santa Cruz Biotechnology and used at 1:100 dilution. Coverslips were then washed 3 times with PBS, then fixed cells were incubated with the secondary antibody Alexa Fluor® 568 conjugate goat-anti-mouse and Alexa Fluor® 488 conjugate goat-anti-rabbit (1:500, Thermo Fisher Scientific, Waltham, MA, USA). Nuclei were stained using DAPI (Sigma–Aldrich, Mila, Italy) for 10 min at a concentration of 0.2 μg/mL then washed 3 times with PBS. Fluorescence was detected using a fluorescence microscope (Leica DM 6000). LAS-X software was used to acquire and process all images.
Figure 6 Immunofluorescence studies. HeLa cells were treated with AuL4, Vinblastine, Paclitaxel (used at their IC50 values) or with a vehicle (CTRL) for 24 h. After treatment, the cells were methanol fixed, incubated with primary and secondary antibodies, stained with DAPI and observed and imaged under the inverted fluorescence microscope at 20× magnification (see Materials and methods). […] Panels A: DAPI, excitation/emission wavelength 350 nm/460 nm; panels B: β-tubulin (Alexa Fluor® 488) excitation/emission wavelength 490 nm/515 nm; panels C show a merge. Representative fields are shown.

[9] = test system: MDA-MB-231 cells; assay: Immunofluorescence of microtubules, MDA-MB-231; type: cell-based, human; conditions: at IC50 value, 24 h
Procedure: as §3
Figure 5 Immunofluorescence studies. […] Panels A: DAPI, excitation/emission wavelength 350 nm/460 nm; panels B: β-tubulin (Alexa Fluor® 488) excitation/emission wavelength 490 nm/515 nm; panels C show a merge. Representative fields are shown.

[10] = test system: tubulin; assay: In vitro tubulin-polymerization assay (turbidity at 350 nm); type: biochemical; conditions: 10 µM; for final optical density value at 350 nm (OD350): vehicle (DMSO) about 0.43
Procedure: Tubulin-polymerization inihibition was measured using in vitro Tubulin-Polymerization Assay Kit purchased fromEMD Millipore Corporation. Polymerization reactions occur in 70 µL final volumes, of which 60 µL is the 60 µM tubulin in 1 × PB-GTP and 10 µL is the test substance dissolved in 1 × PB-GTP. […] These reactives were combined in 96-well plate on ice. After the plate was transferred into the spectrophotometer pre-warmed at 37 °C and the turbidity variation was measured every 30 s at 350 nm for 90 min. The plate was shaked for 10 s before each measurement. Turbidity (absorbance) readings were used to calculate the extent of polymerization [% inhibition = (1−A350 sample/A350 control) × 100].
Figure 4 Tubulin-polymerization assay. […] Two positive control molecules, Paclitaxel and Vinblastine, were used as tubulin-stabilizing and tubulin-destabilizing agents, respectively. DMSO was used as a negative control. Assembly of tubulin into microtubules was determined by measuring the turbidity at 350 nm for 3600 s at 37 °C. All the compounds were used at a concentration of 10 μM.

IC50 [2] [µM] | IC50 ([4]; 72 h) [µM] | IC50 [5] [µM] | Compound | IC50 [1] [µM] | IC50 ([3]; 72 h) [µM] | IC50 [6] [µM] | further results
47.7 ± 0.4 | 29.7 ± 0.3 | 26.7 ± 0.5 | OC(Cn1cc[n+](CC(O)c2ccccc2)[c]1[Ag-][c]1n(CC(O)c2ccccc2)cc[n+]1CC(O)c1ccccc1)c1ccccc1.[I][Ag-][I] (mixture of isomers) [AgL6] | > 200 | 57.9 ± 0.5 | 143.4 ± 0.8 | –
– | – | – | C[n+]1ccn(CC(O)c2ccccc2)[c]1[Ag-][c]1n(CC(O)c2ccccc2)cc[n+]1C.[I][Ag-][I] (racemic) [AgL3] | – | – | – | IC50 MDA-MB-231 ([3]; 72 h): completely inactive
9.76 ± 0.6 | 10.5 ± 0.8 | 6.55 ± 0.9 | C[n+]1c(Cl)c(Cl)n(CC(O)c2ccccc2)[c]1[Ag-][c]1n(CC(O)c2ccccc2)c(Cl)c(Cl)[n+]1C.[I][Ag-][I] (racemic) [AgL7, bis-[4,5-dichloro-(N-methyl-N’(2-hydroxy-2-phenyl)ethyl-imidazole-2-ylidene]silver(I)]^+[di-iodide-silver]^−] | > 200 | 3.22 ± 1.2 | > 200 | –
– | – | – | C[n+]1ccn(CC(O)c2ccccc2)[c]1[Au-][c]1n(CC(O)c2ccccc2)cc[n+]1C.[Cl][Au-][Cl] (racemic) [AuL3] | – | 3.43 ± 1 | – | –
44.5 ± 0.9 | 18.2 ± 0.5 | 54.9 ± 1 | OCc1ccc(-n2cc[n+](CC(O)c3ccccc3)[c]2[Au-][Br])cc1 (racemic) [AuL5] | > 200 | 31.7 ± 0.8 | > 200 | –
> 200 | > 200 | > 200 | OCc1ccc(-n2ccn(CC(O)c3ccccc3)[c]2=[Ag][Br])cc1 (stereo not drawn) [AgL5] | > 200 | > 200 | > 200 | –
– | – | – | OCc1ccc(-[n+]2ccn(CC(O)c3ccccc3)c2)cc1 (stereo not drawn) [L5, N-[4-(hydroxymethyl)phenyl]-N’-[(2-hydroxy-2-phenyl)ethyl]-imidazolium bromide] | – | – | – | IC50 ([1]; Homo sapiens, HEK293): > 200 µM; IC50 ([2]; Homo sapiens, HeLa): > 200 µM; IC50 ([3]; Homo sapiens, MDA-MB-231, 72 h): > 200 µM; IC50 ([4]; Homo sapiens, MCF7, 72 h): > 200 µM; IC50 ([5]; Homo sapiens, Ishikawa): > 200 µM; IC50 ([6]; Homo sapiens, MCF-10A): > 200 µM
– | – | – | OC(Cn1cc[n+](CC(O)c2ccccc2)c1)c1ccccc1 (stereo not drawn) [L6] | – | – | – | IC50 ([1]; Homo sapiens, HEK293): > 200 µM; IC50 ([2]; Homo sapiens, HeLa): > 200 µM; IC50 ([3]; Homo sapiens, MDA-MB-231, 72 h): > 200 µM; IC50 ([4]; Homo sapiens, MCF7, 72 h): > 200 µM; IC50 ([5]; Homo sapiens, Ishikawa): > 200 µM; IC50 ([6]; Homo sapiens, MCF-10A): > 200 µM
– | – | – | O=c1c(O)c(-c2ccc(O)c(O)c2)oc2cc(O)cc(O)c12 [Quercetin, reference compound] | – | – | – | increase of the Hek-293 cells viability vs AuL7 alone ([1]; pre-treatment for 4 h with Quercetin (at 50 μM), then AuL7): about 1.5 fold
– | – | – | CC1=CC(=O)c2ccccc2C1=O [menadione, reference compound] | – | – | – | ROS production (DCF green fluorescence) [7]: increased ROS production
– | – | – | CC(=O)O[C@H]1C(=O)[C@@]2(C)[C@H]([C@H](OC(=O)c3ccccc3)[C@]3(O)C[C@H](OC(=O)[C@H](O)[C@@H](NC(=O)c4ccccc4)c4ccccc4)C(C)=C1C3(C)C)[C@]1(OC(C)=O)CO[C@@H]1C[C@@H]2O [paclitaxel] | – | – | – | effect on microtubule network, HeLa [8]: microtubules non-reversible polymerization; effect on microtubule network, MDA-MB-231 [9]: microtubules non-reversible polymerization; final optical density value at 350 nm (OD350) ([10]; 37 °C): about 0.51
– | – | – | CC[C@]1(O)C[C@@H]2CN(CCc3c([nH]c4ccccc34)[C@@](C(=O)OC)(c3cc4c(cc3OC)N(C)[C@H]3[C@@](O)(C(=O)OC)[C@H](OC(C)=O)[C@]5(CC)C=CCN6CC[C@]43[C@@H]65)C2)C1 [vinblastine, reference compound] | – | – | – | effect on microtubule network, HeLa [8]: microtubules disorganization; effect on microtubule network, MDA-MB-231 [9]: microtubules disorganization; effect on tubulin-polymerization reaction [10]: tubulin-polymerization inhibition; time to reach the steady state of polymerization curve ([10]; 37 °C): about 40 min; final optical density value at 350 nm (OD350) ([10]; 37 °C): less than the half of the vehicle reaction

Compound | IC50 [2] [µM] | IC50 ([4]; 72 h) [µM] | IC50 [5] [µM] | IC50 [1] [µM] | IC50 ([3]; 72 h) [µM] | IC50 [6] [µM] | further results
OC(Cn1ccn(CC(O)c2ccccc2)[c]1=[AuH]=[c]1n(CC(O)c2ccccc2)ccn1CC(O)c1ccccc1)c1ccccc1.[Cl][AuH][Cl] (stereo not drawn) [AuL6] | 98.6 ± 1.2 | 9.38 ± 0.2 | 12.6 ± 0.3 | > 200 | 53.7 ± 0.7 | 158.8 ± 1 | –
N.N.[Cl][Pt][Cl] [Cis-platin, Cisplatin, reference compound] | 15.7 ± 1.1 | 35.8 ± 1.3 | 15.1 ± 0.8 | 16.8 ± 0.4 | 28.7 ± 1 | 81.3 ± 1.2 | –
C[n+]1cn(CC(O)c2ccccc2)c(Cl)c1Cl (stereo not drawn) [L7] | > 200 | > 200 | > 200 | > 200 | > 200 | > 200 | –
